Activity calls are given as the source filed them. The calls are words filed in the database; no cut-off is given here.
Tests used:
A549 = experiment: Cytotoxicity against human A549 cells after 48 hrs by MTT assay; format: functional, cell-based; conditions: A549, 48 h
DU-145 [1] = experiment: Cytotoxicity against human DU145 cells after 48 hrs by MTT assay; format: functional, cell-based; conditions: DU-145, 48 h
HepG2 = experiment: Cytotoxicity against human HepG2 cells after 48 hrs by MTT assay; format: functional, cell-based; conditions: HepG2, 48 h
HeLa = experiment: Cytotoxicity against human HeLa cells after 48 hrs by MTT assay; format: functional, cell-based
MCF7 = experiment: Cytotoxicity against human MCF7 cells after 48 hrs by MTT assay; format: functional, cell-based; conditions: MCF7, 48 h
DU-145 [2] = experiment: Induction of apoptosis in human DU145 cells assessed as nuclear fragmentation at 2 uM after 24 hrs by Hoechst 33342 staining based confocal microscopy; format: functional, cell-based
DU-145 [3] = experiment: Cytotoxicity against human DU145 cells assessed as inhibition of colony formation at 5 uM after 3 days by microscopy; format: functional, cell-based
DU-145 [4] = experiment: Cytotoxicity against human DU145 cells assessed as inhibition of colony formation at 2.5 uM after 3 days by microscopy; format: functional, cell-based
Tubulin (Homo sapiens) [5] = biological target: T1, Tubulin (Homo sapiens) (UniProt P68371+Q9H4B7+P0DPH7+P68366+Q13509+Q71U36+P04350+Q3ZCM7+P07437+P68363+Q9BQE3+Q6PEY2+Q13885+Q9BVA1+Q9BUF5); experiment: Inhibition of tubulin polymerization (unknown origin) at 5 uM measured every min for 1 hr by fluorescence-based assay; format: protein-complex assay; parameters: scale not given: the % may be the effect or the level left
DU-145 [6] = experiment: Cell cycle arrest in human DU145 cells assessed as accumulation at sub-G1 phase at 2 uM after 48 hrs by propidium iodide staining-based flow cytometric analysis (reference value: 0.17%); format: functional
DU-145 [7] = experiment: Cell cycle arrest in human DU145 cells assessed as accumulation at G0/G1 phase at 2 uM after 48 hrs by propidium iodide staining-based flow cytometric analysis (reference value: 78.96%); format: functional
DU-145 [8] = experiment: Cell cycle arrest in human DU145 cells assessed as accumulation at S phase at 2 uM after 48 hrs by propidium iodide staining-based flow cytometric analysis (reference value: 5.88%); format: functional
DU-145 [9] = experiment: Cell cycle arrest in human DU145 cells assessed as accumulation at G2/M phase at 2 uM after 48 hrs by propidium iodide staining-based flow cytometric analysis (reference value: 15%); format: functional
Tubulin (Homo sapiens) [10] = biological target: T1, Tubulin (Homo sapiens); experiment: Inhibition of tubulin polymerization in human DU145 cells assessed as reduction of Akt phosphorylation at Ser473 at 2 to 5 uM after 48 hrs by Western blotting analysis; format: cell-based; conditions: DU-145

SMILES | IC50 (A549) [µM] | IC50 (DU-145 [1]) [µM] | IC50 (HepG2) [µM] | IC50 (HeLa) [µM] | IC50 (MCF7) [µM] | Activity (DU-145 [2]) | inhibition (DU-145 [3]) | inhibition (DU-145 [4]) | Activity (Tubulin (Homo sapiens) [5]) [%] | Activity (DU-145 [6]) [%] | Activity (DU-145 [7]) [%] | Activity (DU-145 [8]) [%] | Activity (DU-145 [9]) [%] | Activity (Tubulin (Homo sapiens) [10])
COc1ccc(/C(=C\c2cc(OC)c(OC)c(OC)c2)C(=O)O[C@H]2c3cc4c(cc3[C@@H](c3cc(OC)c(OC)c(OC)c3)[C@H]3C(=O)OC[C@@H]32)OCO4)cc1OC | 10.4 | 37.8 | 23.7 | 11.8 | 22.9 | – | – | – | – | – | – | – | – | –
COc1cc([C@@H]2c3cc4c(cc3[C@H](OC(=O)C#Cc3ccccc3)[C@H]3COC(=O)[C@H]23)OCO4)cc(OC)c1OC | 1.81 | 0.79 | 1.08 | 1.12 | 1.23 | Active | Active | Active | 53.8 | – | – | – | – | –
COc1ccc(/C(=C\c2ccc(OC(C)=O)c(OC)c2)C(=O)O[C@H]2c3cc4c(cc3[C@@H](c3cc(OC)c(OC)c(OC)c3)[C@H]3C(=O)OC[C@@H]32)OCO4)cc1OC | 0.91 | 1.06 | 10.9 | 2.3 | 1.83 | – | Active | – | 51.2 | 38.88 | 42.8 | 5.69 | 12.63 | Dose-dependent effect
COc1cc([C@@H]2c3cc4c(cc3[C@H](OC(=O)c3cc([N+](=O)[O-])ccc3N)[C@H]3COC(=O)[C@H]23)OCO4)cc(OC)c1OC | 22.2 | 11.2 | 27.3 | 13.7 | 19.7 | – | – | – | – | – | – | – | – | –
COc1ccc(/C(=C\c2cc(OC)c(OC)c(OC)c2)C(=O)O[C@H]2c3cc4c(cc3[C@@H](c3cc(OC)c(OC)c(OC)c3)[C@H]3C(=O)OC[C@@H]32)OCO4)cc1 | 13 | 38.1 | 23.7 | 15.9 | 23.3 | – | – | – | – | – | – | – | – | –
COc1cc([C@@H]2c3cc4c(cc3[C@H](OC(=O)c3ccc([N+](=O)[O-])cc3)[C@H]3COC(=O)[C@H]23)OCO4)cc(OC)c1OC | 0.74 | 1.1 | 8.83 | 2.06 | 1.56 | – | Active | – | 64 | 40.72 | 41.81 | 4.24 | 13.23 | Dose-dependent effect
COc1ccc(/C(=C\c2ccc(OC)c(OC)c2)C(=O)O[C@H]2c3cc4c(cc3[C@@H](c3cc(OC)c(OC)c(OC)c3)[C@H]3C(=O)OC[C@@H]32)OCO4)cc1 | 18.2 | 8.32 | 51.2 | 15.5 | 17.4 | – | – | – | – | – | – | – | – | –
COc1ccc(/C(=C\c2ccc(OCc3ccccc3)c(OC)c2)C(=O)O[C@H]2c3cc4c(cc3[C@@H](c3cc(OC)c(OC)c(OC)c3)[C@H]3C(=O)OC[C@@H]32)OCO4)cc1OC | 24.9 | 13.4 | 28 | 15.9 | 20.3 | – | – | – | – | – | – | – | – | –
COc1cc([C@@H]2c3cc4c(cc3[C@H](OC(=O)c3cccc(OC)c3OC)[C@H]3COC(=O)[C@H]23)OCO4)cc(OC)c1OC | 24.3 | 50.4 | 48.6 | 13.2 | 21 | – | – | – | – | – | – | – | – | –
COc1ccc(/C=C\c2cc(OC)c(OC)c(OC)c2)cc1O | – | – | – | – | – | – | – | – | 69.4 | – | – | – | – | –
COc1cccc(/C(=C\c2cc(OC)c(OC)c(OC)c2)C(=O)O[C@H]2c3cc4c(cc3[C@@H](c3cc(OC)c(OC)c(OC)c3)[C@H]3C(=O)OC[C@@H]32)OCO4)c1 | 24.9 | 18.4 | 27.3 | 14.1 | 20.1 | – | – | – | – | – | – | – | – | –
CC#CC(=O)O[C@H]1c2cc3c(cc2[C@@H](c2cc(OC)c(OC)c(OC)c2)[C@H]2C(=O)OC[C@@H]21)OCO3 | 1.03 | 1.71 | 1.47 | 1 | 1.35 | Active | Active | Active | 62.1 | – | – | – | – | –
COc1cc([C@@H]2c3cc4c(cc3[C@H](O)[C@H]3COC(=O)[C@H]23)OCO4)cc(OC)c1OC [PODOFILOX] | – | > 100 | – | – | – | – | – | – | 66.6 | – | – | – | – | –
COc1cccc2c1C(=O)c1c(O)c3c(c(O)c1C2=O)C[C@@](O)(C(=O)CO)C[C@@H]3O[C@H]1C[C@H](N)[C@H](O)[C@H](C)O1 [DOXORUBICIN] | – | 4.06 | 3.82 | 0.9 | – | – | – | – | – | – | – | – | – | –
COc1ccc(/C(=C\c2ccc(OC)c(OCc3ccccc3)c2)C(=O)O[C@H]2c3cc4c(cc3[C@@H](c3cc(OC)c(OC)c(OC)c3)[C@H]3C(=O)OC[C@@H]32)OCO4)cc1OC | 17.5 | 33 | 22.9 | 14.3 | 17.6 | – | – | – | – | – | – | – | – | –
COc1ccc(C(=O)O[C@H]2c3cc4c(cc3[C@@H](c3cc(OC)c(OC)c(OC)c3)[C@H]3C(=O)OC[C@@H]32)OCO4)c([N+](=O)[O-])c1 | 25.8 | 14.4 | 26.5 | 17.6 | 15.3 | – | – | – | – | – | – | – | – | –
COc1cc([C@@H]2c3cc4c(cc3[C@H](OC(=O)c3ccccc3Cl)[C@H]3COC(=O)[C@H]23)OCO4)cc(OC)c1OC | 34.5 | 11.2 | 24.4 | 17.1 | 19.5 | – | – | – | – | – | – | – | – | –
COc1ccc(/C=C(/C(=O)O[C@H]2c3cc4c(cc3[C@@H](c3cc(OC)c(OC)c(OC)c3)[C@H]3C(=O)OC[C@@H]32)OCO4)c2ccc(OC)c(OC)c2)cc1OC | 0.71 | 1.4 | 5.13 | 2.02 | 1.74 | – | Active | – | 46.8 | 73 | 22.39 | 1.68 | 2.94 | Dose-dependent effect

Reference: ChEMBL document CHEMBL3352650, “Investigation of podophyllotoxin esters as potential anticancer agents: synthesis, biological studies and tubulin inhibition properties” (Eur J Med Chem, 2015)
